The numbers were not newly measured in PMC8952239, “Injectable Biodegradable Silica Depot: Two Months of Sustained Release of the Blood Glucose Lowering Peptide, Pramlintide” (Pharmaceutics, 2022), which cites them from elsewhere.

Bridge positions count the residues as written; N and C are the ends. Ends that are not written are not given here.

One series relates to lean rats. From the text:
(Figure 6). […] The findings for bodyweight loss mirror very well previously published data in lean rats. Roth et al. show body weight returning to baseline levels 8 days after the start of amylin treatment in an experiment assessing the effect ...

For another series, the system named is rats. As to the method:
In an earlier preclinical study of pramlintide in rats, the peak plasma concentration of pramlintide at 50% maximally effective gastric inhibitory dose was reported to be 15 pM. The lower dose (5 mg/kg) formulation in the present study seems to achieve this concentration level by the end of the study.

The conditions of series [1]: weak acid; no reference given. From the text: In this communication, we highlight a sustained delivery strategy for in vivo delivery of the synthetic peptide analogue of amylin, pramlintide acetate. As mentioned earlier, amylin is the endogenous hormone co-secreted with insulin by the pancreas for glucose metabolism in vivo. […] Such effects can be moderated either by decreasing the single dosing of preprandial ins ...

Take “amylin: endogenous hormone co-secreted with insulin by the pancreas (KCNTATCATQRLANFLVHSSNNFGAILSSTNVGSNTY; Islet amyloid polypeptide; UniProt P10997 34-70, looked up)”: the “time after start of treatment at which body weight returned to baseline levels” value in the series with lean rats (continuous subcutaneous amylin infusion over 24 days) was 8 days. The “period with significant effects on food intake” value in the series with lean rats (lean animals, minipump over 14 days) is given as 6 days. In the case of “pramlintide acetate (KCNTATCATQRLANFLVHSSNNFGPILPPTNVGSNTY-NH2; disulfide 2-7 (inferred); also: acetate salt; UniProt P10997 34-70, looked up, variant A25P S28P S29P) [synthetic analogue of amylin, adjunct to preprandial insulin therapy]”, in the series on rats, the “peak plasma concentration at 50% maximally effective gastric inhibitory dose” value is on record as 15 pM.

What is called pKa is the pH at which an ionisable group is half protonated. Regarding `O[Si](O)(O)O` [silicic acid], the pKa in series [1] was 9.84.
